Reference: article PMC6479789, “High Consistency of Structure-Based Design and X-Ray Crystallography: Design, Synthesis, Kinetic Evaluation and Crystallographic Binding Mode Determination of Biphenyl-N-acyl-β-D-Glucopyranosylamines as Glycogen Phosphorylase Inhibitors” (Molecules, 2019)

Assays:
Assay type in all cases: biochemical
[1] = molecular target: T1, hlGPa (Homo sapiens, UniProt P06737); assay: inorganic phosphate release, glycogen synthesis direction
T1 construct: gene PYGL; recombinant human liver GPb (produced as described previously) converted to the phosphorylated a form with truncated gamma subunit of rabbit phosphorylase kinase
T1 sequence (P06737 2-847): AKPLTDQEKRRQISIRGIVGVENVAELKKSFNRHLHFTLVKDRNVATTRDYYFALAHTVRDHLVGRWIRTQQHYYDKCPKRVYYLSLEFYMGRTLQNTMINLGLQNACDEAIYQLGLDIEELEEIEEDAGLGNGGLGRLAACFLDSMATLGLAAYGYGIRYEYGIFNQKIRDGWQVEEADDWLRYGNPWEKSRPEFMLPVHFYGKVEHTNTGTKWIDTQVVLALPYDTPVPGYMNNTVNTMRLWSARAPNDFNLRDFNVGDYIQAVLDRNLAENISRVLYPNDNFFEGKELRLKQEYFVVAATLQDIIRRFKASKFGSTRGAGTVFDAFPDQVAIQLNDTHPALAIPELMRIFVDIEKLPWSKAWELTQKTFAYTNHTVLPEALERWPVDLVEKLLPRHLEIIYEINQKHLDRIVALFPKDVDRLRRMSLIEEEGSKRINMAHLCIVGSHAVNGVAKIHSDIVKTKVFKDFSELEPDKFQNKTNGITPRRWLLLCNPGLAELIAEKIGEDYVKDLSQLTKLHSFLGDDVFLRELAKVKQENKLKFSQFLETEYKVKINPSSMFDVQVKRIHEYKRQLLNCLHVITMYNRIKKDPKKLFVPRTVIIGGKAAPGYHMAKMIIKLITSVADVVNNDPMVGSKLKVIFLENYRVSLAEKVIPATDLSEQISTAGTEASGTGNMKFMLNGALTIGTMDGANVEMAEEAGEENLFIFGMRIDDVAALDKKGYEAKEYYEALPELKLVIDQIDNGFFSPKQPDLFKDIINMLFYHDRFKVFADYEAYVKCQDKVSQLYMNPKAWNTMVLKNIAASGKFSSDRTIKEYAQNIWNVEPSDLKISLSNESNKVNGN
Text: inorganic phosphate release, glycogen synthesis direction on hlGPa

[2] = molecular target: T2, rmGPb (Oryctolagus cuniculus, UniProt P00489); assay: inorganic phosphate release, glycogen synthesis direction; crystal structure of the complex also solved
T2 construct: gene PYGM; native, purified from rabbit skeletal muscles (Fischer and Krebs), unphosphorylated b form
T2 sequence (P00489 2-843): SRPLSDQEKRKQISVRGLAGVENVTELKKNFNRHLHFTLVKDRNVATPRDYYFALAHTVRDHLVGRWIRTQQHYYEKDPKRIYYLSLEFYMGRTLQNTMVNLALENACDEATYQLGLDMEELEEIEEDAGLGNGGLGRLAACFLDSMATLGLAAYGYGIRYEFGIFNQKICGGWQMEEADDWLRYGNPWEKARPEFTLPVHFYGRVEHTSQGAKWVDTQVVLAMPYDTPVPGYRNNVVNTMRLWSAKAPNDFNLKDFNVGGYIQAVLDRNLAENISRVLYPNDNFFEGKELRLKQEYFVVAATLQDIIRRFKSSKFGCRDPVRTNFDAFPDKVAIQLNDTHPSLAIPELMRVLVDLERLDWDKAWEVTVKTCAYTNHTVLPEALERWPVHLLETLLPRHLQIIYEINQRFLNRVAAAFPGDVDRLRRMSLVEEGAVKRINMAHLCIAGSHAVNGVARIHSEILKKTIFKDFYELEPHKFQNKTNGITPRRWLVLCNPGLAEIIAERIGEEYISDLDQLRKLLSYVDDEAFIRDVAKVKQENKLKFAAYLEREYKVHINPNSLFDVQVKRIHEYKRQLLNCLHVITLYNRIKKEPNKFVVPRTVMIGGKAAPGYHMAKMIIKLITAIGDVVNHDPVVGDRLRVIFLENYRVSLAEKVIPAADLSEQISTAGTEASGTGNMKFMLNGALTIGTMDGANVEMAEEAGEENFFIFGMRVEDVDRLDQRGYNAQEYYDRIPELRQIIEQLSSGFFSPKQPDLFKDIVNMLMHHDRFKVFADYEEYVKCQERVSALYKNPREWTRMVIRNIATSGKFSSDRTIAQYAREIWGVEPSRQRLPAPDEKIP
Text: inorganic phosphate release, glycogen synthesis direction; crystal structure of the complex also solved on rmGPb

[3] = molecular target: T3, rmGPa (Oryctolagus cuniculus, UniProt P00489); assay: inorganic phosphate release, glycogen synthesis direction
T3 construct: gene PYGM; native rabbit skeletal muscle GPb converted to the phosphorylated a form with truncated gamma subunit of rabbit phosphorylase kinase
T3 sequence (P00489 2-843): T2 sequence (P00489 2-843)
Text: inorganic phosphate release, glycogen synthesis direction on rmGPa

Row | Ki [1] | Ki [2] | Ki [3] | Structure (SMILES)
1 | 19.4 ± 0.2 µM | 9.7 ± 0.7 µM | 12.8 ± 0.6 µM | O=C(N[C@@H]1O[C@H](CO)[C@@H](O)[C@H](O)[C@H]1O)c1ccc(-c2ccccc2)cc1 [compound 4, N-(3,4,5-trihydroxy-6-(hydroxymethyl)tetrahydro-2H-pyran-2-yl)biphenyl-4-carboxamide]
2 | 45.6 ± 1.8 µM | 56.1 ± 4.4 µM | 31.4 ± 2.2 µM | O=C(N[C@@H]1O[C@H](CO)[C@@H](O)[C@H](O)[C@H]1O)c1cccc(-c2ccc(F)cc2)c1 [compound 3, 4’-fluoro-N-(3,4,5-trihydroxy-6-(hydroxymethyl)tetrahydro-2H-pyran-2-yl)biphenyl-3-carboxamide]
